Measured values taken from patent US7161029B2, “DiL-lysine monosulfate trihydrate crystal and method of making” (Ajinomoto Co., Inc., priority 2003, dated 2007).

Experiments:
[1] = temperature range at which the trihydrate precipitates (35° C. and below)
[2] = system: Piglets; details: compared with L-lysine hydrochloride; cited from earlier work

SMILES | degree of solubility in water versus the solubility curve of anhydrous diL-lysine sulfate (FIG. 4) [1] | feed effects [2]
NCCCC[C@H](N)C(=O)O.NCCCC[C@H](N)C(=O)O.O.O.O.O=S(=O)(O)O [diL-lysine monosulfate trihydrate] | lower than the degree of solubility that would be anticipated from the solubility curve of anhydrous diL-lysine sulfate | 
NCCCC[C@H](N)C(=O)O.NCCCC[C@H](N)C(=O)O.O=S(=O)(O)O [diL-lysine sulfate] |  | equivalent to those of L-lysine hydrochloride
